According to patent US20260092061A1, “COMPOUNDS FOR TARGETED PROTEIN DEGRADATION” (Amphista Therapeutics Limited, priority 2022, published 2026):

How the values were obtained:
Assay type in all cases: cell-based
BRD7 = target: T1, BRD7 (Homo sapiens, UniProt Q9NPI1); test: BRD7 degradation, HiBiT-BRD7 KI HEK293 (LgBiT) cells, NanoGlo Lytic Endpoint assay (Assay Protocol 1); conditions: HEK293; Table 3; assay 1; 1 μM compound at 5 h of treatment
T1 construct: HiBiT-BRD7 KI HEK293 (LgBiT) Cells (Promega CS3023410); host or cells: HEK293 (LgBiT), HiBiT knock-in at the BRD7 locus
T1 sequence (Q9NPI1 1-651): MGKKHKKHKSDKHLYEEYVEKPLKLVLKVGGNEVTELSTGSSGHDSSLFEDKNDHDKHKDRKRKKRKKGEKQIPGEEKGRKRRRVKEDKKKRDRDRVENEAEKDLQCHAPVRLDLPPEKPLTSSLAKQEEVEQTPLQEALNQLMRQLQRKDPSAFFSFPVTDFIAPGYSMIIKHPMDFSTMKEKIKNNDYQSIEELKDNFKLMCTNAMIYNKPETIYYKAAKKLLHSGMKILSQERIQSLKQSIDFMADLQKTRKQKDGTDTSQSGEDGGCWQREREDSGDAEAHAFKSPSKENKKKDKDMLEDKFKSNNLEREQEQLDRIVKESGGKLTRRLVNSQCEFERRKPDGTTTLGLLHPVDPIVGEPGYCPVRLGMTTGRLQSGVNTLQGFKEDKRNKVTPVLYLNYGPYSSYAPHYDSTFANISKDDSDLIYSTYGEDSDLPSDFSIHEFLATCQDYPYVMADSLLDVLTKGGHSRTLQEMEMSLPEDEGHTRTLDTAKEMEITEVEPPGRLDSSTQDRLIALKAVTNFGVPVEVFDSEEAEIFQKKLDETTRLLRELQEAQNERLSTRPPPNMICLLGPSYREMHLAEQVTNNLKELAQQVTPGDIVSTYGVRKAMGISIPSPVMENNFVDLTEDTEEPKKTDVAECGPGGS
Procedure: HiBiT-BRD9 KI HEK293 (LgBiT) Cells (Promega CS3023412) were seeded at 8000 cells per well (38 μL) in sterile white bottom 384 well plates (Invitrogen 164610 or Greiner 781080) and incubated overnight at 37° C. with 5% CO2. The next day, compounds were prepared at 1000× final concentration in DMSO and diluted 1:100 in media (DMEM PAN Biotech P04-03550+10% FBS ATCC 302025). […] The lytic buffer was equilibrated to room temperature for 10-15 min before lytic reagent was prepared by adding substrate (1:50) and LgBit protein (1:100) in lytic buffer. 40 μL lytic reagent mix was added to each well of the cel plate and plates were centrifuged briefly at ˜50g. Plates were incubated with shaking (350 RPM) for 12-24 min before reading using the LUM plus module of a BMG Pherastar FSX. Data was analysed using Dotmatics software and % BRD9 remaining was calculated by normalisation to average data from high and low control wells (DMSO treated cels and no cells respectively).
BRD7 degradation was determined in line with the procedure as outlined above for BRD9, with the exception that HiBiT-BRD7 KI HEK293 (LgBiT) Cells (Promega CS3023410) were seeded at 8000 cells per well (CPW) (36 uL) in sterile white bottom 384 well plates (Invitrogen 164610 or Greiner 781080) and incubated overnight at 37° C. with 5% CO2.

BRD9 = target: T2, BRD9 (Homo sapiens, UniProt Q9H8M2); test: BRD9 degradation, HiBiT-BRD9 KI HEK293 (LgBiT) cells, NanoGlo Lytic Endpoint assay (Assay Protocol 1); conditions: Table 3; assay 1; 5 h of treatment
T2 sequence (Q9H8M2 1-597): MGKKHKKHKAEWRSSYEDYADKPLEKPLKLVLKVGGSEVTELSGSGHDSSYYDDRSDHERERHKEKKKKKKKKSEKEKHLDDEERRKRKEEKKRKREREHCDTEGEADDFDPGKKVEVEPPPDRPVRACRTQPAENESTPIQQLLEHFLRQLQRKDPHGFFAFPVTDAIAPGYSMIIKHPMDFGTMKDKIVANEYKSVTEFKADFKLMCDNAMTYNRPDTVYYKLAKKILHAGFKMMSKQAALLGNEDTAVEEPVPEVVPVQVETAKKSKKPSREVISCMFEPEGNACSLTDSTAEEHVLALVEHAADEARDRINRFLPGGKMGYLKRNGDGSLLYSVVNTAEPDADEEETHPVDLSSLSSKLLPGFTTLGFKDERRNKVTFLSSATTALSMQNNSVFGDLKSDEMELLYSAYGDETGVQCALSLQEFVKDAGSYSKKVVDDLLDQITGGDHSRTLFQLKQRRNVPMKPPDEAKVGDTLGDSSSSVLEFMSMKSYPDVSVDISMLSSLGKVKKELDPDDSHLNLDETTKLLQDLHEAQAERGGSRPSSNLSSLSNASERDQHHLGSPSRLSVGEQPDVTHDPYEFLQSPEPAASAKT

BRD4 = target: T3, BRD4 (Homo sapiens, UniProt O60885); test: BRD4 degradation, HiBiT-BRD4 HEK293 CRISPR CPM cells, NanoGlo Lytic Endpoint assay (Assay Protocol 1); conditions: HEK293; Table 3; assay 1; 1 μM compound at 5 h of treatment
T3 construct: HiBiT-BRD4 HEK293 CRISPR CPM (Promega CS302312); host or cells: HEK293, CRISPR-edited (HiBiT at the BRD4 locus)

Compound	Dmax at 1 µM (BRD7)	DC50 (BRD9)	Dmax (BRD4)
COc1cc(-c2cn(C)c(=O)c(C)c2C)cc(OC)c1CN1CCN(Cc2cccc3c2CCN(C(=O)/C(C#N)=C/c2nccs2)C3C)CC1 (mixture of isomers) [Compound A4, (E/Z)-2-(5-((4-(2,6-dimethoxy-4-(1,4,5-trimethyl-6-oxo-1,6-dihydropyridin-3-yl)benzyl)piperazin-1-yl)methyl)-1-methyl-1,2,3,4-tetrahydroisoquinoline-2-carbonyl)-3-(thiazol-2-yl)acrylonitrile]	< 25%	< 1.25 nM	< 25%
COc1cc(-c2cn(C)c(=O)c3cnccc23)cc(OC)c1CN1CCN(Cc2cccc3c2CCN(C(=O)/C(C#N)=C\c2ncc(C)s2)C3C)CC1 (mixture of isomers) [Compound A10, (E/Z)-2-(5-((4-(2,6-dimethoxy-4-(2-methyl-1-oxo-1,2-dihydro-2,7-naphthyridin-4-yl)benzyl)piperazin-1-yl)methyl)-1-methyl-1,2,3,4-tetrahydroisoquinoline-2-carbonyl)-3-(5-methylthiazol-2-yl)acrylonitrile]	25 to 40%	< 1.25 nM	< 25%
COc1cc(-c2cn(C)c(=O)c(C)c2C)cc(OC)c1CN1CCN(Cc2cccc3c2CCN(C(=O)/C(C#N)=C/c2cccc(Br)n2)C3C)CC1 (mixture of isomers) [Compound A16, (E/Z)-3-(6-bromopyridin-2-yl)-2-(5-((4-(2,6-dimethoxy-4-(1,4,5-trimethyl-6-oxo-1,6-dihydropyridin-3-yl)benzyl)piperazin-1-yl)methyl)-1-methyl-1,2,3,4-tetrahydroisoquinoline-2-carbonyl) acrylonitrile]	25 to 40%	1.25 to 10 nM	< 25%
COc1cc(-c2cn(C)c(=O)c3cnccc23)cc(OC)c1CN(C)Cc1cccc2c1CCN(C(=O)/C(C#N)=C/c1cccc(Br)n1)C2C (mixture of isomers) [Compound A50]	25 to 40%	< 1.25 nM	< 25%
COc1cc(-c2cn(C)c(=O)c(C)c2C)cc(OC)c1CN1CCC(Oc2cccc3c2CCN(C(=O)/C(C#N)=C/c2cccc(Br)n2)C3C)CC1 (mixture of isomers) [Compound A68, (E/Z)-3-(6-bromopyridin-2-yl)-2-(5-((1-(2,6-dimethoxy-4-(1,4,5-trimethyl-6-oxo-1,6-dihydropyridin-3-yl)benzyl)piperidin-4-yl)oxy)-1-methyl-1,2,3,4-tetrahydroisoquinoline-2-carbonyl)acrylonitrile]	< 25%	1.25 to 10 nM	< 25%
COc1cc(-c2cn(C)c(=O)c(C)c2C)cc(OC)c1CN1CC2CC(C1)N2Cc1cccc2c1CCN(C(=O)/C(C#N)=C/C(C)(C)C)C2C (mixture of isomers) [Compound A71, (E/Z)-2-(5-((3-(2,6-dimethoxy-4-(1,4,5-trimethyl-6-oxo-1,6-dihydropyridin-3-yl)benzyl)-3,6-diazabicyclo[3.1.1]heptan-6-yl)methyl)-1-methyl-1,2,3,4-tetrahydroisoquinoline-2-carbonyl)-4,4-dimethylpent-2-enenitrile]	40 to 70%	1.25 to 10 nM	25 to 40%
COc1cc(-c2cn(C)c(=O)c(C)c2C)cc(OC)c1CN1CCCN(Cc2cccc3c2CCN(C(=O)/C(C#N)=C/C(C)(C)C)C3C)CC1 (mixture of isomers) [Compound A72, (E/Z)-2-(5-((4-(2,6-dimethoxy-4-(1,4,5-trimethyl-6-oxo-1,6-dihydropyridin-3-yl)benzyl)-1,4-diazepan-1-yl)methyl)-1-methyl-1,2,3,4-tetrahydroisoquinoline-2-carbonyl)-4,4-dimethylpent-2-enenitrile]	< 25%	10 to 25 nM	< 25%
